The term logD denotes lipophilicity at a set pH, counting ionised and neutral species. For orientation: EC50 means the concentration giving half of the maximal effect.

In brackets after ≈: the same amount, converted by molar mass. Where two headings read alike, the source gives them in different places. Positions of bridges follow the written chain, without caps; N, C: chain ends. Non-standard residues stand in square brackets, D forms with d. Residues, ends and D or L forms follow the SMILES beside them. Lys(N3) = [N-]=[N+]=NCCCC[C@H](N)C(=O)O; R8 = C=CCCCCCC[C@@](C)(N)C(=O)O; Cba = N[C@@H](CC1CCC1)C(=O)O; S5 = C=CCCC[C@](C)(N)C(=O)O; βAla = NCCC(=O)O; Sar = CNCC(=O)O

Series [1] in a line: Experimental LogD (partition coefficient). The following applies: not stated, Partition Coeff LogD.
Series [2] is described as follows: in vitro. In a few lines:
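Azido-peptide permeability was read as loss of NanoBRET signal (donor 450 nm, acceptor 610 nm) after adding NanoBret618-azide at 10 μM final.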

Series [3] is described as follows: Solubility assay (kinetic solubility, PBS pH 7). Format: physicochemical. Particulars: pH 7, PBS; for solubility kinetic: pH 7, aqueous buffer, kinetic from dmso stock, read-out: Solubility. In a few lines:
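Reference standards were made by diluting the 10 mM stock to 100 µM in acetonitrile:methanol:DMSO 10:80:10. Solubility in µM was calculated as the sample peak area divided by the standard peak area, multiplied by the standard concentration.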

Series [4] can be described thus: physchem.
Series [5] in a line: Lactate dehydrogenase (LDH) release assay. It counts as cell-based. The method in brief: (§1)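 A p53 β-lactamase reporter HCT116 line, 8000 cells per well, is exposed to test compounds at 0.5% final DMSO and scored for LDH leakage.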
The subject of series [6] is HCT116 cells. Description: Lactate dehydrogenase (LDH) release assay. It counts as cell-based. In a few lines: as §1
Setting [7] is: Nanoclick permeability assay EC50.

`CC(=O)N[C@@H](CCCCN=[N+]=[N-])C(=O)NCCC(=O)N[C@@H](CC(C)C)C(=O)N[C@H](C(=O)N[C@@H](Cc1ccccc1)C(=O)N[C@]1(C)CCCCCCC=CCCC[C@@](C)(C(=O)N[C@@H](CO)C(=O)N[C@@H](C)C(=O)N[C@@H](C)C(N)=O)NC(=O)[C@H](CC2CCC2)NC(=O)[C@H](CCC(N)=O)NC(=O)[C@H](C)NC(=O)[C@H](Cc2c[nH]c3ccccc23)NC(=O)[C@H](Cc2ccc(O)cc2)NC(=O)[C@H](CCC(=O)O)NC1=O)C(C)C` [MP-258] (Ac-[Lys(N3)][βAla]LVF[R8]EYWAQ[Cba][S5]SAA-NH2; staple 6-13) showed a logD in series [1] of 2.93. In series [2] (setting [7]), the cell entry EC50 was 0.146 µM. Also, the solubility kinetic in series [3] came out at 79 µM (≈ 155 µg/mL). This compound also registered an EPSA in series [4] of 213 A^2. This compound also had an EC50 in series [5] (LDH: Cytotoxicity assay: EC50) greater than 50.6 µM. In addition, the “LDH: Cytotoxicity assay: % Effect” value in series [6] is recorded as -5.925%.
Regarding `CC(=O)N[C@@H](CCCCN=[N+]=[N-])C(=O)NCCC(=O)N[C@@H](CC(C)C)C(=O)N[C@H](C(=O)N[C@@H](Cc1ccccc1)C(=O)N[C@]1(C)CCCCCCC=CCCC[C@@](C)(C(=O)N[C@@H](CO)C(=O)N[C@@H](C)C(=O)N[C@@H](C)C(N)=O)NC(=O)[C@H](CC2CCC2)NC(=O)[C@H](CCC(N)=O)NC(=O)[C@H](C)NC(=O)[C@H](Cc2c[nH]c3cc(F)ccc23)NC(=O)[C@H](Cc2ccc(O)cc2)NC(=O)[C@H](CCC(=O)O)NC1=O)[C@@H](C)O` [MP-004], in series [1], the logD is 2.9. Further, the cell entry EC50 in series [2] (setting [7]) amounted to 7.44 µM. In series [3], the solubility kinetic is 110 µM (≈ 219 µg/mL). The EPSA in series [4] came to 201 A^2. Also, the response in series [5] (LDH: Cytotoxicity assay: EC50) was half-maximal at 23.9 µM (EC50). For the same compound, the “LDH: Cytotoxicity assay: % Effect” value in series [6] is listed as 10.1%.
Take `CC(C)C[C@@H]1NC(=O)[C@H](C)NC(=O)[C@H](Cc2c[nH]c3ccccc23)NC(=O)[C@H](Cc2ccc(O)cc2)NC(=O)[C@H](CCC(=O)O)NC(=O)[C@](C)(NC(=O)[C@H](Cc2ccccc2)NC(=O)[C@H](CO)NC(=O)[C@@H](NC(=O)CCNC(=O)[C@@H](N)CCCCN=[N+]=[N-])[C@@H](C)O)CCCCCCC=CCCC[C@@](C)(C(N)=O)NC(=O)[C@H](CC(C)C)NC1=O` [MP-0177]: in series [1], the logD was determined as 2.7. The cell entry EC50 in series [2] (setting [7]) stood at 0.13 µM. For the same compound, the Solubility entry in series [3] is given as “Poorly Behaved”. The EPSA in series [4] is 218 A^2. Also, in series [5] (LDH: Cytotoxicity assay: EC50), the EC50 was greater than 50.6 µM. The “LDH: Cytotoxicity assay: % Effect” value in series [6] is -0.29%.
`CC(=O)N[C@@H](CCCCN=[N+]=[N-])C(=O)NCCC(=O)N[C@@H](CC(C)C)C(=O)N[C@H](C(=O)N[C@@H](Cc1ccccc1)C(=O)N[C@]1(C)CCCCCCC=CCCC[C@@](C)(C(=O)N[C@@H](CO)C(=O)N(C)[C@@H](C)C(=O)N[C@@H](C)C(N)=O)NC(=O)[C@H](CC2CCC2)NC(=O)[C@H](CCC(N)=O)NC(=O)[C@H](C)NC(=O)[C@H](Cc2c[nH]c3ccccc23)NC(=O)[C@H](Cc2ccc(O)cc2)NC(=O)[C@H](CCC(=O)O)NC1=O)[C@@H](C)O` [MP-3353] displayed a logD in series [1] of 2.67. For the same compound, the cell entry EC50 in series [2] (setting [7]) came out at 0.232 µM. In addition, the solubility kinetic in series [3] was 33 µM (≈ 65.5 µg/mL). This compound also showed an EPSA in series [4] of 202 A^2. For the same compound, the EC50 in series [5] (LDH: Cytotoxicity assay: EC50) was greater than 50.6 µM. Also, the “LDH: Cytotoxicity assay: % Effect” value in series [6] was found to be 1.89%.
In turn, `CC(=O)N[C@@H](CCCCN=[N+]=[N-])C(=O)NCCC(=O)N[C@@H](CC(C)C)C(=O)N[C@H](C(=O)N[C@@H](Cc1ccccc1)C(=O)N[C@]1(C)CCCCCCC=CCCC[C@@](C)(C(=O)NCC(=O)N[C@@H](C)C(=O)N[C@@H](C)C(N)=O)NC(=O)[C@H](CC2CCC2)NC(=O)[C@H](CCC(N)=O)NC(=O)[C@H](C)NC(=O)[C@H](Cc2c[nH]c3ccccc23)NC(=O)[C@H](Cc2ccc(O)cc2)NC(=O)[C@H](CCC(=O)O)NC1=O)[C@@H](C)O` [MP-798] (Ac-[Lys(N3)][βAla]LTF[R8]EYWAQ[Cba][S5]GAA-NH2; staple 6-13) returned a logD in series [1] of 2.79. Moreover, in series [2], the cell entry EC50 turned out to be 0.0829 µM. Moreover, in series [3], the solubility kinetic was 80 µM (≈ 155 µg/mL). This compound also showed an EPSA in series [4] of 212 A^2. The EC50 in series [5] (0% FBS 4Hr, read-out: LDH: Cytotoxicity assay: EC50) is greater than 50.6 µM; in series [5] (10% FBS 4Hr, read-out: LDH: Cytotoxicity assay: EC50) it was greater than 50 µM. In addition, the figures for the “LDH: Cytotoxicity assay: % Effect” value in series [6] (0% FBS 4Hr), in series [6] (0% FBS 16Hr) and in series [6] (10% FBS 4Hr) were 16.01%, 1.68% and 16.43%, respectively.
`CC(=O)N[C@@H](CCCCN=[N+]=[N-])C(=O)NCCC(=O)N[C@@H](CC(C)C)C(=O)N[C@H](C(=O)N[C@@H](Cc1ccccc1)C(=O)N[C@]1(C)CCCCCCC=CCCC[C@@](C)(C(=O)N[C@@H](CO)C(=O)N[C@@H](C)C(=O)N[C@@H](C)C(N)=O)NC(=O)[C@H](CC2CCC2)NC(=O)[C@H](CCC(N)=O)NC(=O)CN(C)C(=O)[C@H](Cc2c[nH]c3ccccc23)NC(=O)[C@H](Cc2ccc(O)cc2)NC(=O)[C@H](CCC(=O)O)NC1=O)[C@@H](C)O` [MP-351] (Ac-[Lys(N3)][βAla]LTF[R8]EYW[Sar]Q[Cba][S5]SAA-NH2; staple 6-13): in series [1], the logD stood at 2.26. Further, the cell entry EC50 in series [2] (setting [7]) was greater than 10 µM. In series [3], the solubility kinetic was determined as 29 µM (≈ 57.1 µg/mL). In series [4], this compound returned an EPSA of 193 A^2. In addition, the EC50 in series [5] (LDH: Cytotoxicity assay: EC50) is greater than 50 µM. The “LDH: Cytotoxicity assay: % Effect” value in series [6] was -3.92%.
In series [1], `CC(=O)N[C@@H](CCCCN=[N+]=[N-])C(=O)NCCC(=O)N[C@@H](CC(C)C)C(=O)N[C@H](C)C(=O)N[C@@H](Cc1ccccc1)C(=O)N[C@]1(C)CCCCCCC=CCCC[C@@](C)(C(=O)N[C@@H](CO)C(=O)N[C@@H](C)C(=O)N[C@@H](C)C(N)=O)NC(=O)[C@H](CC2CCC2)NC(=O)[C@H](CCC(N)=O)NC(=O)[C@H](C)NC(=O)[C@H](Cc2c[nH]c3ccccc23)NC(=O)[C@H](Cc2ccc(O)cc2)NC(=O)[C@H](CCC(=O)O)NC1=O` [MP-7471] (Ac-[Lys(N3)][βAla]L[dA]F[R8]EYWAQ[Cba][S5]SAA-NH2; staple 6-13) had a logD of 2.95. The cell entry EC50 in series [2] (setting [7]) is greater than 10 µM. Also, in series [3], the solubility kinetic was determined as 93.5 µM (≈ 181 µg/mL). Also, in series [4], the EPSA worked out at 229 A^2. For the same compound, the EC50 in series [5] (LDH: Cytotoxicity assay: EC50) is greater than 50 µM. The “LDH: Cytotoxicity assay: % Effect” value in series [6] amounted to 0.465%.
For the compound `CC(=O)N[C@@H](CCCCN=[N+]=[N-])C(=O)NCCC(=O)NCC(=O)N[C@H](C(=O)N[C@@H](Cc1ccccc1)C(=O)N[C@]1(C)CCCCCCC=CCCC[C@@](C)(C(=O)N[C@@H](CO)C(=O)N[C@@H](C)C(=O)N[C@@H](C)C(N)=O)NC(=O)[C@H](CC2CCC2)NC(=O)[C@H](CCC(N)=O)NC(=O)[C@H](C)NC(=O)[C@H](Cc2c[nH]c3ccccc23)NC(=O)[C@H](Cc2ccc(O)cc2)NC(=O)[C@H](CCC(=O)O)NC1=O)[C@@H](C)O` [MP-261] (Ac-[Lys(N3)][βAla]GTF[R8]EYWAQ[Cba][S5]SAA-NH2; staple 6-13), the logD in series [1] turned out to be 2.62. The cell entry EC50 in series [2] (setting [7]) turned out to be 0.273 µM. In addition, in series [3], the solubility kinetic stood at 89 µM (≈ 170 µg/mL). This compound also gave an EPSA in series [4] of 222 A^2. The compound also had an EC50 in series [5] (LDH: Cytotoxicity assay: EC50) greater than 50.6 µM. In addition, the “LDH: Cytotoxicity assay: % Effect” value in series [6] stood at 8.826%.
`CC(=O)N[C@@H](CCCCN=[N+]=[N-])C(=O)NCCC(=O)N1CCC[C@H]1C(=O)N[C@H](C(=O)N[C@@H](Cc1ccccc1)C(=O)N[C@]1(C)CCCCCCC=CCCC[C@@](C)(C(=O)N[C@@H](CO)C(=O)N[C@@H](C)C(=O)N[C@@H](C)C(N)=O)NC(=O)[C@H](CC2CCC2)NC(=O)[C@H](CCC(N)=O)NC(=O)[C@H](C)NC(=O)[C@H](Cc2c[nH]c3ccccc23)NC(=O)[C@H](Cc2ccc(O)cc2)NC(=O)[C@H](CCC(=O)O)NC1=O)[C@@H](C)O` [MP-259] (Ac-[Lys(N3)][βAla]PTF[R8]EYWAQ[Cba][S5]SAA-NH2; staple 6-13) gave a logD in series [1] of 2.67. For the same compound, the cell entry EC50 in series [2] (setting [7]) turned out to be 0.29 µM. The solubility kinetic in series [3] worked out at 90.5 µM (≈ 177 µg/mL). The EPSA in series [4] turned out to be 221 A^2. Also, in series [5] (LDH: Cytotoxicity assay: EC50), the EC50 was greater than 50.6 µM. Moreover, the “LDH: Cytotoxicity assay: % Effect” value in series [6] came out at 7.47%.
